Among the data in BindingDB's records for doi:10.1016/j.bmc.2015.05.058 (Washington University, 2015) are Ki values, retold here.

This experiment concerns the target T1, Vesicular acetylcholine transporter (Homo sapiens, UniProt Q16572).
T1 sequence (Q16572 whole entry): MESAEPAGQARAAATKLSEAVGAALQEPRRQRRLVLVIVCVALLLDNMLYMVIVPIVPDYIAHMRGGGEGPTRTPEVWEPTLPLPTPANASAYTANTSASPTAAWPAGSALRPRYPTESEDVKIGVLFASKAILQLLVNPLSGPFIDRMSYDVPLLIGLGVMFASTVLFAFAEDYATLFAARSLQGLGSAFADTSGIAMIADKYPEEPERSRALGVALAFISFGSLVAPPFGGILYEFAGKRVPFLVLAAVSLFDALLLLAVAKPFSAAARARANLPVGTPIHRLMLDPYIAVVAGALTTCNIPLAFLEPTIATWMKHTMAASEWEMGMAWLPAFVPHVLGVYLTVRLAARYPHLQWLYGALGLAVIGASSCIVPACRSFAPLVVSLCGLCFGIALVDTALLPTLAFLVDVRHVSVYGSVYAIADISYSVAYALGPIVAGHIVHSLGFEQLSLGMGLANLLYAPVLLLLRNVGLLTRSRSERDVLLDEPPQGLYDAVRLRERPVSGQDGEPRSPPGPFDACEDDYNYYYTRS
Put plainly: Displacement of [3H]-vesamicol from human VAChT after 24 hrs by liquid scintillation spectrometry analysis. On the technique in general: In a radioligand displacement assay an active substance lowers the binding of a labelled ligand.
The Ki is a measure of affinity in units of concentration, obtained from inhibition or displacement. For `O=C(c1ccc(F)cc1)C1CCN(C2Cc3c(cccc3OCCF)CC2O)CC1` (stereo not drawn), the Ki worked out at 13 nM.

`O=C(c1ccc(F)cc1)C1CCN([C@@H]2Cc3c(cccc3OCCF)C[C@H]2O)CC1` registered a Ki of 1.6 nM.

Regarding `O=C(c1ccc(F)cc1)C1CCN([C@@H]2Cc3cccc(OCCF)c3C[C@H]2O)CC1`, the affinity, expressed as Ki, was 93 nM.
